# Test results as given in US20150354006A1, “MARKERS FOR ACUTE LYMPHOBLASTIC LEUKEMIA” (Novartis AG, priority 2012, published 2015).
# What was measured:
# KMS-11 cells = assay: KMS11-luciferase intravenous multiple myeloma mouse model with doxycycline-inducible NSD2 shRNA; assay type: in vivo, SCID-beige mice
# Method: Six- to eight-week-old female SCID-beige mice (Vital River, Beijing, China) were injected intravenously with 10^7 KMS-11 cells stably transduced with inducible NSD2 shRNA (sh4: 5′ ACATGCTCACTATAGACAA′3 (SEQ ID NO:8)) and tagged with luciferase. The injection of KMS11 cells was in 100 μl PBS with 50% Matrigel, with 8-10 mice per group/treatment. To induce the shRNA expression, mice were fed with water containing 5% sucrose and 0.2 mg/ml doxycycline. Images were taken weekly (with 200 μl/mouse D-luciferase intraperitoneal injection), and pathology such as paralysis was monitored.
# JVM-3 line = assay: NSD2 Tet-inducible cellular proliferation assay, JVM-3 cells; assay type: cell-based; conditions: JVM-3 line (no E1099K), shRNA induced vs U6-empty control, FIG. 14
# Method: (§1) To test the hypothesis that the NSD2 E1099K mutation is important in the pathogenesis of ALL cells, several shRNA knockdown experiments were done. In these experiments, NSD2 shRNA sequences were cloned into pLKO-Tet-On vectors with the H1 promoter or U6 promoter. shRNA lentivitus was generated as described above. Cell lines were infected and selected by puromycin. All tet inducible shRNA cell lines are cultured using tet system approved FBS (Clontech, Cat#: 631106, Mountain View, Calif.). NSD2 Tet-inducible cellular proliferation assay was set up as the following. Cultured cells were placed at 0.2 million cells/ml in 10 ml and split into two wells (5 ml/well) in a 6-well plate. Doxycycline (100 ng/ml final) was added to one well at assay initiation and every 2-3 days to induce NSD2 Tet-inducible shRNAs. On days 4 and 8 the assayed cells (with and without doxycycline) were counted for viability and cell concentration (10^6 cell/ml) with Vi-cell. Assayed cells were then reset to 0.2×10^6 cells/ml in 5 ml every 4 days to keep the cells proliferating in log-phase. On day 8, 1 million cells were collected from assayed cells for Western blot analysis. The shRNA sequences used in the experiments were the following, and are used with this nomenclature in FIG. 13.
# (§2) The shRNAs described above were then used in a cell proliferation assay. […]
# [1] = tested on: H3K36me2 and H3K27me3 methylation; assay: Western blot of histone H3 methylation status after shRNA knockdown in SEM cells; assay type: cell-based; conditions: NSD2 E1099K knocked down, FIG. 16
# Method: NSD2 shRNA sequences were cloned into pLKO-Tet-On vectors with H1 promoter or U6 promoter. shRNA lentivitus was generated as described above. Cell lines were infected and selected by puromycin. All tet inducible shRNA cell lines are cultured using tet system approved FBS (Clontech, Cat#: 631106). The NSD2 Tet-inducible cellular proliferation assay was set up as follows. Cultured cells were placed at 0.2 million cells/ml in 10 ml and split into two wells (5 ml/well) in 6-well plate. Doxycycline (100 ng/ml final) was added to one well at assay initiation and every 2-3 days to induce NSD2 Tet-inducible shRNAs. On days 4 and 8 the assayed cells (with and without doxycycline) were counted for viability and cell concentration (10^6 cell/ml) with Vi-cell. Assayed cells were then reset to 0.2×10^6 cells/ml in 5 ml every 4 days to keep the cells proliferating in log-phase. On days 8, 1 million cells were collected from assayed cells for Western blot analysis. The shRNA sequences used in the experiments were the V17 (SEQ ID NO. 9) and 9A5 (SEQ ID NO. 10) as described in Example 11 above.
# For example, this is clearly seen in SEM cells wherein NSD2 E1099K is knocked down with […]. The amount of NSD2 present is very low, as is H3K36me2 methylation.
# SEM cells = assay: NSD2 Tet-inducible cellular proliferation assay, SEM cells; assay type: cell-based; conditions: SEM cells (E1099K), shRNA induced vs U6-empty control, FIG. 14
# Method: as §1, §2
# NSD2 = assay: Western blot of NSD2 knockdown by inducible shRNA in ALL cell lines; assay type: cell-based, human; conditions: induced with doxycycline, FIG. 13
# Method: as §1, with “13. […]” for “13.”
Substance,"tumor growth (KMS-11 cells; KMS11-luciferase with inducible NSD2 shRNA, induction with doxycycline for 29 days, FIG. 3A)","luciferase activity of tumors (KMS-11 cells; time course with vs without doxycycline induction, FIG. 3B)",reduction of cell proliferation (JVM-3 line),H3K27me3 methylation [1],amount of NSD2 and H3K36me2 methylation [1],reduction of cell proliferation (SEM cells),expression of NSD2 and MMSET1 (NSD2)
"sh4: inducible NSD2 shRNA, 5' ACATGCTCACTATAGACAA 3' (SEQ ID NO:8)",greatly inhibited tumor growth,greatly reduced,–,–,–,–,–
"9A5 shRNA: NSD2 shRNA 5' GAATAAGCCTTACGGGAAA 3' (SEQ ID NO. 10), targets NSD2 isoforms containing the SET domain",–,–,about 15%,robust H3K27me3 methylation,very low,about 60%,capable of reducing expression of NSD2 and MMSET1
